Consider 5 compounds from paper PMC8274277 (Antiviral Research, 2021).

SMILES strings stand for the structures. Read-outs that look alike come from different tables or passages of the source.

The test system of test [1] is SARS-CoV-2. It is filed as cell-based, SARS-CoV-2 strain BavPat1. The note with it: VeroE6 cells.
For test [2], the system named is SARS-CoV-2. Also on record: species or system golden Syrian hamsters. Conditions: hamster, in vivo.
Test [3] has as its system SARS-CoV-2. Description: Lung histology of infected hamsters. It is filed as in vivo, golden Syrian hamsters. The note with it: sacrificed at 5 dpi.
Test [4] deals with SARS-CoV-2. Description: Antiviral assay using bronchial human airway epithelium. The format is cell-based, SARS-CoV-2 strain BavPat1.
For test [5] the following is noted: hospitalized COVID-19 patients; ref Aman et al., 2021; cited from earlier work.

`O=C(Nc1ccc(OC(F)(F)Cl)cc1)c1cnc(N2CC[C@@H](O)C2)c(-c2cc[nH]n2)c1` [Asciminib]: the “selectivity Index (SI, CC50/EC50)” value in test [1] is recorded as 1.1. For the same compound, the antiviral activity result in test [1] (SARS-CoV-2) is given as “did not show any antiviral activity”.

In the case of `NC(=O)c1nc(F)c[nH]c1=O` [Favipiravir], in test [2], the “lung infectious titers (TCID50 assay)” value is “significant reductions”; the “lung viral RNA yields (RT-qPCR)” value is “significant reductions”; the “viral replication in clarified lung homogenates and plasma” value is “significant reduction of viral replication”.

Regarding `Cc1ccc(NC(=O)c2ccc(CN3CCN(C)CC3)cc2)cc1Nc1nccc(-c2cccnc2)n1` [Imatinib], in test [3] (first experiment, 32 mg/day), the “lung histopathological impairements vs untreated group” value was “significant improvement”. For the same compound, in test [3] (second experiment, 32, 16 and 8 mg/day), the “lung histopathology grade severity” value is “did not led to a significant improvement”. The “viral RNA yields in apical washes” value in test [4] was “small significant reduction”. The “antiviral activity (viral RNA yields and infectious titres in apical washes)” value in test [4] ([…], imatinib 10, 5, remdesivir 10 μM) is on record as “no other significant antiviral activity”. Also, in test [2] (po), the “molecular plasma viral loads” value is “did not affect significantly”. Also, the “time to discontinuation of supplemental oxygen and mechanical ventilation” value in test [5] is “does not reduce the time to discontinuation of supplemental oxygen and mechanical ventilation”.

For `Cc1ccc(NC(=O)c2ccc(CN3CCN(C)CC3)cc2)cc1Nc1nc(-c2cccnc2)cs1` [Masitinib], the “selectivity Index (SI, CC50/EC50)” value in test [1] is given as 11.5.

Turning to `CCC(CC)COC(=O)[C@H](C)N[P@](=O)(OC[C@H]1O[C@@](C#N)(c2ccc3c(N)ncnn23)[C@H](O)[C@@H]1O)Oc1ccccc1` [Remdesivir], the “antiviral activity (viral RNA yields and infectious titres in apical washes)” value in test [4] is “strong antiviral activity”.
